The target in experiment [1] is cloned hERG potassium channel (Homo sapiens, UniProt Q12809). The experiment can be described thus: hERG FASTPatch assay (QPatch patch clamp). Format: cell-based. The following applies: hERG stably expressed in cells; 1, 3, 10 and 30 uM; room temperature; Table 3. The method, then:
Human Ether-à-go-go-Related Gene (hERG) Assay
The FASTPatch® Assay (Charles River) was used to examine the in vitro effects of the compounds provided herein on the cloned hERG potassium channel encoded by the KCNHI2 gene and stably expressed in ITEK293T cells. Vehicle, test and control article formulations were prepared by diluting DMSO stock solutions in TIB-PS (HEPES-buffered physiological saline solution) and were delivered to cells via the QPatch robot pipetting system to a final concentration of 0.3% DMSO. Test compound final concentrations of 1, 3, 10 and 30 uM were applied to cells (n≥3, where n=the number of cells/concentration) in ascending order in at least three minute intervals separated by solution exchange. The positive control, 50 nM cisparide, was applied in the same manner. Cell membrane currents were recorded at room temperature with up to 48 parallel patch clamp amplifiers in the QPatch HT® or QPatch HTX® system, and only cells with validated whole-cell recordings (seal resistance ≥200 MQ and leak current ≤25% channel current) were used. Onset and block of hERG current was measured using a stimulus voltage pattern consisting of a 500 ms prepulse to −40 mV, a 2-second activating pulse to +40 mV, followed by a 2-second test pulse to −40 mV. The pulse pattern was repeated continuously at 10-second intervals from a holding potential of −80 mV. % Block={1−1/[1+([Test]/IC50)^N]}*100% Where [Test] is the concentration of test article, IC50 is the concentration of the test article producing half-maximal inhibition, N is the Hill coefficient and % Block is the percentage of current inhibited at each concentration of the test article. Nonlinear least squares fits will be solved with the Solver add-in for Excel 2000 or later (Microsoft, Redmon, WA). TurboSol analysis for test compound solubility was performed for each concentration tested using a Nephelostar reader measuring light scatter from a 635 nm laser source. Based on validation experiments, light scatter above four times the background level was considered an indication of the presence of particles in suspension.
The hERG IC50 values are provided below in Table 3.
In general terms: The hERG channel carries a current that helps repolarise heart muscle cells.

The target in the next experiment is T1, TLR8 (Homo sapiens, UniProt Q9NR97).
T1 construct: lymphocytes, monocytes and dendritic cells that express TLR7, TLR8 and TLR9; endogenous in cells; host or cells: cryopreserved human PBMCs from healthy donors
T1 sequence (Q9NR97 27-1041): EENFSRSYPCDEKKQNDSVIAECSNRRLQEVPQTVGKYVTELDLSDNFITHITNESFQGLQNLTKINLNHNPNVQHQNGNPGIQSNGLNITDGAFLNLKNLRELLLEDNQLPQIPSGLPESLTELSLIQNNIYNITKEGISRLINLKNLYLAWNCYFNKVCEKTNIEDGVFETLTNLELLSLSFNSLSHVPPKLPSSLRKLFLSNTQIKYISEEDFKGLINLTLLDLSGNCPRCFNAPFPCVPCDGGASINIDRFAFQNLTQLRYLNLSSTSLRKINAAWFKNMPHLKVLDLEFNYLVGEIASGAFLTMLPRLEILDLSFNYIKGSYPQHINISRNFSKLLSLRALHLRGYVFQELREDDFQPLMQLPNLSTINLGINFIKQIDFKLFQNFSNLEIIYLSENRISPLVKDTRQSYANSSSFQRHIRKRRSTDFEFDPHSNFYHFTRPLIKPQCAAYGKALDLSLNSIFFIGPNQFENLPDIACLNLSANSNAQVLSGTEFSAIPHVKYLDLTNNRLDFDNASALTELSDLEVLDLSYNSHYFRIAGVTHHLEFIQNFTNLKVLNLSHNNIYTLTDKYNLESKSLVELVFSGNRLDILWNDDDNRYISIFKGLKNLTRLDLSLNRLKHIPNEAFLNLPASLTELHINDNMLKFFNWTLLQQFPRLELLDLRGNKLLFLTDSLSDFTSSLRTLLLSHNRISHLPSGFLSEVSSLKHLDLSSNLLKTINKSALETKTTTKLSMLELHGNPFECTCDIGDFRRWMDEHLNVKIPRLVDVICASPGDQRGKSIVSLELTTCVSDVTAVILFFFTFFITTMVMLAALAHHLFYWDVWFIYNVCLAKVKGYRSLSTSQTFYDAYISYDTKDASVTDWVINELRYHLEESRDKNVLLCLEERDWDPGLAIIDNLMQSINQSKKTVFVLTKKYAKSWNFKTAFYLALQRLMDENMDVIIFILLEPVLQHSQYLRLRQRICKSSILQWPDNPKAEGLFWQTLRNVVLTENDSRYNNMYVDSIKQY
Briefly: TLR8 human PBMC cell-based assay. Conditions: human PBMCs; TLR8 agonist Compound A 800 nM; 6 hours; cytokines (TNFa and IL12p40) in supernatant; Table 2; read-out: TLR-8 EC50. Here is the method:
TLR8 Human Peripheral Blood Mononuclear Cell (PBMC) Cell-Based Assay
Cryopreserved human PBMCs from healthy donors were thawed and resuspended in RPMI-1640 media with L-glutamine (Corning) supplemented with 10% Fetal Bovine Serum (Hyclone) and 1× Penicillin-Streptomycin (Corning). After counting, the cell density was adjusted to 2 million cells/ml and incubated for 1 hour at 37° C., 5% CO2 for recovery. Following the recovery, the cells were plated by adding 50p per well (100,000 cells) to 384-well cell culture plates (Greiner) containing 250 nl of test antagonists in 100% DMSO per well, in a 10 points dose response in quadruplicates. PBMCs were incubated in the presence of antagonists for one hour at 37° C., 5% CO2 before being stimulated with TLR8 agonist. Compound A (Gilead Sciences, U.S. Pat. No. 10,285,990) was used as the TLR8 agonist at a final concentration of 800 nM. PBMCs were incubated in the presence of antagonist and the TLR8 agonist for an additional 6 hours at 37° C., 5% CO2. At the end of the incubation, the cell culture plates were centrifuged at 500 g for 5 min, and the cell culture supernatant was collected. The level of cytokines (TNFa and IL12p40) in the supernatant was measured by electrochemiluminescence immunoassays (Mesoscale Discovery) following manufacturer's recommended protocols. The level of cytokine measured was plotted against the antagonist concentration and fitted to a sigmoidal function to determine the EC50, which are shown below in Table 2.

cloned hERG potassium channel, sequence (Q12809 whole entry): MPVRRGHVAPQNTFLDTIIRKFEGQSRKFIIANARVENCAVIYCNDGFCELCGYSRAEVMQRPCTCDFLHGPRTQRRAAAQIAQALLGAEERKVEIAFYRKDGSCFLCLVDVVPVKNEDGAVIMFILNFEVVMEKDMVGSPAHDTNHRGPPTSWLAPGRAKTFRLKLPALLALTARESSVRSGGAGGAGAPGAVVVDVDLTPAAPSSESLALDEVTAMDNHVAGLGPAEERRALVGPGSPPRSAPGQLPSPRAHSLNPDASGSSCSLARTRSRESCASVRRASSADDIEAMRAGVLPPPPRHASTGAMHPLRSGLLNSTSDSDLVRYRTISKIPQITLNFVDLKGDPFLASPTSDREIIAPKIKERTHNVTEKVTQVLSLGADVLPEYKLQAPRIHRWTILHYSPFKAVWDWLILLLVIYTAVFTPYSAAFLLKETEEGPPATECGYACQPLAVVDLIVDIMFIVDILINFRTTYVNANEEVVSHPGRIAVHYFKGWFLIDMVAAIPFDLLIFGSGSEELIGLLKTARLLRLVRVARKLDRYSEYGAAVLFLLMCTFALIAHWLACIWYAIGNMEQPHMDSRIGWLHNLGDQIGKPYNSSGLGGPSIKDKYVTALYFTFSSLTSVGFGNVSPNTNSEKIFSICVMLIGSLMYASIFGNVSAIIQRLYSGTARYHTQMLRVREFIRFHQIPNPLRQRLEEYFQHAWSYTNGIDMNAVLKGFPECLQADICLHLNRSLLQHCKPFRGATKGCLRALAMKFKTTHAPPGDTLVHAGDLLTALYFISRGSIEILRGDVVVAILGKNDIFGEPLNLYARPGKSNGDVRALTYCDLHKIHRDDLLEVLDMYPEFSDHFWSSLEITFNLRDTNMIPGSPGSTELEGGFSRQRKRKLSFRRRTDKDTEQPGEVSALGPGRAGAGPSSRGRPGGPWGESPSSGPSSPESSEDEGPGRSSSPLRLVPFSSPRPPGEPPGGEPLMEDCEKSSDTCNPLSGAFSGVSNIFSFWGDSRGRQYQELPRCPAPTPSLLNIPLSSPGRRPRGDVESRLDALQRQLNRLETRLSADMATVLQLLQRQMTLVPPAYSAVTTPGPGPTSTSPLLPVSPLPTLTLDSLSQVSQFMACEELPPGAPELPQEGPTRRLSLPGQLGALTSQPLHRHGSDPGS

For `Cc1cc(-c2[nH]c3ccc(-c4ccc(N5CCNCC5)nc4)cc3c2C(C)C)cn2ncnc12` [Example B, reference compound], in experiment [1], the IC50 – broadly, the point on the concentration scale where inhibition reaches its midpoint – was determined as 5100 nM.
With `Cc1c(-c2ccc(N3CCNCC3)nc2)[nH]c2cc(-c3ccc(C#N)c4ncccc34)ccc12` [Example 7], the EC50 (usually the concentration giving half of the maximal effect) on TLR8 was determined as 21.5 nM.
For `CCc1c(-c2ccc(N3CCNCC3)nc2)[nH]c2cc(-c3cc(C)c4ncnn4c3)ccc12` [Example 23], the EC50 at TLR8 is 34.7 nM.
Regarding `Cc1cc(-c2ccc3c(C)c(-c4cnc(N5CCNCC5)nc4)[nH]c3c2)cc(C)n1` [Example 1, 6-(2,6-dimethylpyridin-4-yl)-3-methyl-2-(2-(piperazin-1-yl)pyrimidin-5-yl)-1H-indole], the EC50 at TLR8 amounted to 318 nM.
For `Cc1c(-c2ccc(N3CCNCC3)nc2)[nH]c2cc(-c3cc(C)c4ncnn4c3)ccc12` [Example 4], the IC50 in experiment [1] stood at 15500 nM. The concentration for a half-maximal effect (EC50) at TLR8 stood at 18.2 nM.
With `Cc1cc(-c2ccc3c(C)c(-c4ccc(N5CCNCC5)nc4)[nH]c3c2)cc(C)n1` [Example 2, 6-(2,6-dimethylpyridin-4-yl)-3-methyl-2-(6-(piperazin-1-yl)pyridin-3-yl)-1H-indole], the IC50 in experiment [1] was 7000 nM. For the same compound, the EC50 on TLR8 was 307 nM.
Consider `Cc1cc(-c2[nH]c3ccc(-c4ccc(N5CCNCC5)nc4)cc3c2C(C)C)cc(C)n1` [Example A, reference compound], for which the IC50 in experiment [1] was found to be 4500 nM.

The values are drawn from patent US20240059673A1, “SUBSTITUTED INDOLE COMPOUNDS” (Gilead Sciences, Inc., priority 2020, published 2024).
